# Test results as given in US4018895A, “Aryloxyphenylpropylamines in treating depression” (Eli Lilly and Company, priority 1975, dated 1977).
# Tests used:
# [1] = tested on: anticholinergic effect, isolated muscle strips; experiment: Anticholinergic effect in isolated muscle strips
# [2] = tested on: antihistaminic effect, isolated muscle strips; experiment: Antihistaminic effect in isolated muscle strips
# [3] = tested on: hypothermia induced by the injection of reserpine; experiment: Reserpine hypothermia reversal test; format: in vivo, mice; conditions: in words
# Protocol: (§1) The apomorphine hypothermia antagonism test is carried out as follows: mice are injected with a dose of apomorphine known to reduce body temperature approximately 4° C. The compound under test is injected 1/2 hour before the injection of the apomorphine and the temperatures measured 1/2 hour after injection. The degree of antagonism is expressed as a percent reduction (as compared with controls) of the temperature decrease produced by the injection of the apomorphine. The reserpine hypothermia reversal test is carried out as follows: groups of mice are injected with reserpine and 16.5 hours later are injected intraperitoneally with graded doses of the drug, a different dose level being given to each group of mice. Temperatures are measured at 1 hour after injection of the drug under test and again the effectiveness of the drug is expressed as a percentage decrease in the hypothermia induced by the injection of reserpine as compared with the control group. In the tablets which follow, Table 4 gives the results in the apomorphine antagonism and reserpine reversal hypothermia tests for the secondary amines of this invention. In the table, the first column gives the substituent attached to the oxygen atom at the 3 position of the propylamine chain; columns 2 to 4 the percent antagonism against apomorphine hypothermia at dose levels of 0.3, 1 and 3 mg./kg. and columns 5-7 the percent reversal of reserpine hypothermia at the same dose levels.
# [4] = tested on: antiserotonin effect, isolated muscle strips; experiment: Antiserotonin effect in isolated muscle strips
# [5] = tested on: response rates of pigeons; experiment: Operant behavior, fixed-ratio, fixed interval schedule; format: in vivo; conditions: in words
# From the text: In manifesting their psychotropic action, the compounds of this invention also affect the behavior of animals trained in a variety of operant behavior schedules. Again, the activity of compounds of this invention in this type of test parallels that of known antidepressant drugs, particularly desmethylimipramine. […] With pigeons trained under an adjusting ratio schedule, the drugs of this invention affect behavior in the same way as does the marketed antidepressant, desmethylimipramine (DMI). […] The above results are consistent with antidepressant action.
# [6] = tested on: hypothermia induced by the injection of apomorphine; experiment: Apomorphine hypothermia antagonism test; format: in vivo, mice; conditions: in words
# Protocol: as §1, with “The compound under test is injected 1/2 hour before the injection of the apomorphine and the temperatures measured 1/2 hour after injection.” left out
# brain serotonin = experiment: Prevention of brain serotonin depletion caused by 4-chloroamphetamine; format: in vivo; conditions: rats injected with 4-chloroamphetamine; drug 15 mg./kg. intraperitoneally; 4 hours later
# Protocol: Following this injection, the protecting drug was injected at a dose of 15 mg./kg. of rat-weight intraperitoneally and determinations of brain serotonin levels were carried out 4 hours later.
structure (smiles),measurement,setting,value
CNCCCN1c2ccccc2CCc2ccccc21 [desmethylimipramine],Potency as anticholinergic agent relative to N-methyl 3-(o-methoxyphenoxy)-3-phenylpropylamine,[1],150 times
same,Potency as antihistaminic agent relative to N-methyl 3-(o-methoxyphenoxy)-3-phenylpropylamine,[2],150 times
same,Activity in reversal of reserpine hypothermia,[3],active
same,Potency as antiserotonin agent relative to N-methyl 3-(o-methoxyphenoxy)-3-phenylpropylamine,[4],three
same,"Response rates in fixed-ratio, fixed interval schedule",[5],A similar effect
same,Activity in antagonism of apomorphine hypothermia,[6],active
same,Brain serotonin level,brain serotonin,0.44 ± .03 µg/g
